Experimental data: patent publication US12194051B2, “5-azaindazole derivatives as adenosine receptor antagonists” (MERCK PATENT GMBH, priority 2018, dated 2025)

Columns and labels:
human A2A receptors = biological target: T1, human A2A receptors (Homo sapiens, UniProt P29274); experiment: Inhibition of human A2A receptor in recombinant HEK293 cells, cAMP quantification (HTRF); assay type: cell-based; details: read-out: A2A (Category)
T1 construct: expressed in transfected cells; host or cells: HEK293
T1 sequence (P29274 whole entry): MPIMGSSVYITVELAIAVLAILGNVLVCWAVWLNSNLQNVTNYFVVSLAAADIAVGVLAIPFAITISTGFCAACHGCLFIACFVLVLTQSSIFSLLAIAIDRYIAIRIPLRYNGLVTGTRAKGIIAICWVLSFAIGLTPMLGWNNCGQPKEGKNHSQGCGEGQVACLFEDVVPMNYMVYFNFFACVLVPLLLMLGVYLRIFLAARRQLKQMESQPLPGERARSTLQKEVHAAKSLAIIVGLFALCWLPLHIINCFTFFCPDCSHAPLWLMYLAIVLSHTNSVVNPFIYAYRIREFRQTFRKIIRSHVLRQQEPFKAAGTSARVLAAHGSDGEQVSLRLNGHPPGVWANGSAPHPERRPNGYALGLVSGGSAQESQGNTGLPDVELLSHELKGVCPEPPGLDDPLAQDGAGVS
Procedure: (§1) The functional activities of human A2A and A2B receptors were determined by quantification of cAMP, being the second messenger for adenosine receptors.
(§2) After a 15 min incubation, HTRF reagents (cAMP dynamic 2, Cis Bio) were added and the cellular cAMP levels were determined using the ENVISION (Perkin Elmer) plate reader.

human A2B receptors = biological target: T2, human A2B receptors (Homo sapiens, UniProt P29275); experiment: Inhibition of human A2B receptor in recombinant HEK293 cells, cAMP quantification (HTRF); assay type: cell-based; details: read-out: A2B (Category)
T2 construct: expressed in transfected cells; host or cells: HEK293
T2 sequence (P29275 1-332): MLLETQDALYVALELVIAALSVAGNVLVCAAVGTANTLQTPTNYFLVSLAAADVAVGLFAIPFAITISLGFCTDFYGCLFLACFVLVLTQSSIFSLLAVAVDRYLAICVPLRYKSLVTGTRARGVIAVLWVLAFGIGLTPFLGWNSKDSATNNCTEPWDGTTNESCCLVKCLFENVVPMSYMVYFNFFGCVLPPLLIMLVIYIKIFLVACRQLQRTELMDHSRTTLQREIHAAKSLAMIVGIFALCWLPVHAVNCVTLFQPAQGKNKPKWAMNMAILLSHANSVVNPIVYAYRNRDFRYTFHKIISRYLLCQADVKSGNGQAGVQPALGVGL
Procedure: as §1, §2

| Compound | IC50 (human A2A receptors) | IC50 (human A2B receptors) |
| --- | --- | --- |
| [2H]C1([2H])COCCN(C(=O)c2cc3c(cn2)c(Nc2ccc(F)cn2)nn3CC(F)(F)F)C1 [Compound 91, (6,6-dideuterio-1,4-oxazepan-4-yl)-[3-[(5-fluoro-2-pyridyl)amino]-1-(2,2,2-trifluoroethyl)pyrazolo[4,3-c]pyridin-6-yl]methanone] | < 0.1 µM | < 0.1 µM |
| O=C(c1cc2c(cn1)c(Nc1ccc(F)cn1)nn2CC(F)(F)F)N1CCOC[C@@H](F)C1 [Compound 93, [(6S)-6-fluoro-1,4-oxazepan-4-yl]-[3-[(5-fluoro-2-pyridyl)amino]-1-(2,2,2-trifluoroethyl)pyrazolo[4,3-c]pyridin-6-yl]methanone] | < 0.1 µM | < 0.1 µM |
| O=C(c1cc2c(cn1)c(Nc1ccc(F)cn1)nn2CC(F)(F)F)N1CCC(O)CC1 [Compound 94, [3-[(5-fluoro-2-pyridyl)amino]-1-(2,2,2-trifluoroethyl)pyrazolo[4,3-c]pyridin-6-yl]-(4-hydroxypiperidin-1-yl)methanone] | < 0.1 µM | < 0.1 µM |
| CC1(O)CCN(C(=O)c2cc3c(cn2)c(Nc2ccc(F)cn2)nn3CC(F)(F)F)CC1 [Compound 95, [3-(5-Fluoro-pyridin-2-ylamino)-1-(2,2,2-trifluoro-ethyl)-1H-pyrazolo[4,3-c]pyridin-6-yl]-(4-hydroxy-4-methyl-piperidin-1-yl)-methanone] | < 0.1 µM | < 1 µM |
| O=C(c1cc2c(cn1)c(Nc1ccc(F)cn1)nn2CC(F)(F)F)N1CCC(F)CC1 [Compound 96, (4-Fluoro-piperidin-1-yl)-[3-(5-fluoro-pyridin-2-ylamino)-1-(2,2,2-trifluoro-ethyl)-1H-pyrazolo[4,3-c]pyridin-6-yl]-methanone] | < 0.1 µM | < 1 µM |
| O=C(c1cc2c(cn1)c(Nc1ccc(F)cn1)nn2CC(F)(F)F)N1CCC[C@@H](O)C1 [Compound 97, [(3R)-3-hydroxy-piperidin-1-yl]-[3-(5-Fluoro-pyridin-2-ylamino)-1-(2,2,2-trifluoro-ethyl)-1H-pyrazolo[4,3-c]pyridin-6-yl]-methanone] | < 0.1 µM | < 1 µM |
| O=C(c1cc2c(cn1)c(Nc1ccc(F)cn1)nn2CC(F)(F)F)N1CCC[C@H](O)C1 [Compound 98, [(3S)-3-hydroxy-piperidin-1-yl]-[3-(5-Fluoro-pyridin-2-ylamino)-1-(2,2,2-trifluoro-ethyl)-1H-pyrazolo[4,3-c]pyridin-6-yl]methanone] | < 0.1 µM | < 1 µM |
| O=C(c1cc2c(cn1)c(Nc1ccc(F)cn1)nn2CC(F)(F)F)N1CCC[C@@H](F)C1 [Compound 99, [(3R)-3-fluoro-piperidin-1-yl]-[3-(5-Fluoro-pyridin-2-ylamino)-1-(2,2,2-trifluoro-ethyl)-1H-pyrazolo[4,3-c]pyridin-6-yl]methanone] | < 0.1 µM | < 1 µM |
| O=C(c1cc2c(cn1)c(Nc1ccc(F)cn1)nn2CC(F)(F)F)N1CCC[C@H](F)C1 [Compound 100, [(3S)-3-fluoro-piperidin-1-yl]-[3-(5-Fluoro-pyridin-2-ylamino)-1-(2,2,2-trifluoro-ethyl)-1H-pyrazolo[4,3-c]pyridin-6-yl]methanone] | < 0.1 µM | < 1 µM |
| O=C(c1cc2c(cn1)c(Nc1ccc(F)cn1)nn2CC(F)(F)F)N1CCC[C@@H](CO)C1 [Compound 101, [3-[(5-fluoro-2-pyridyl)amino]-1-(2,2,2-trifluoroethyl)pyrazolo[4,3-c]pyridin-6-yl]-[(3R)-3-(hydroxymethyl)-1-piperidyl]methanone] | < 0.1 µM | < 0.1 µM |
| O=C(c1cc2c(cn1)c(Nc1ccc(F)cn1)nn2CC(F)(F)F)N1CCC[C@H](CO)C1 [Compound 102, [3-[(5-fluoro-2-pyridyl)amino]-1-(2,2,2-trifluoroethyl)pyrazolo[4,3-c]pyridin-6-yl]-[(3S)-3-(hydroxymethyl)-1-piperidyl]methanone] | < 0.1 µM | < 0.1 µM |
| O=C(c1cc2c(cn1)c(Nc1ccc(F)cn1)nn2CC(F)(F)F)N1[C@@H]2CC[C@H]1C[C@@H](O)C2 [Compound 107, [3-[(5-fluoro-2-pyridyl)amino]-1-(2,2,2-trifluoroethyl)pyrazolo[4,3-c]pyridin-6-yl]-(3-endo-hydroxy-8-azabicyclo[3.2.1]octan-8-yl)methanone] | < 0.1 µM | < 0.1 µM |
| O=C(c1cc2c(cn1)c(Nc1cc(F)ccn1)nn2CC(F)(F)F)N1CCOC[C@@H](F)C1 [Compound 110, [(6S)-6-fluoro-1,4-oxazepan-4-yl]-[3-(4-fluoro-pyridin-2-ylamino)-1-(2,2,2-trifluoro-ethyl)-1H-pyrazolo[4,3-c]pyridin-6-yl]-methanone] | < 0.1 µM | < 0.1 µM |

More lines, now with the values ahead:

| IC50 (human A2A receptors) | IC50 (human A2B receptors) | Compound |
| --- | --- | --- |
| < 0.1 µM | < 0.1 µM | O=C(c1cc2c(cn1)c(Nc1cc(F)c(Cl)cn1)nn2CC(F)(F)F)N1CCCOCC1 [Compound 71, [3-[(5-chloro-4-fluoro-2-pyridyl)amino]-1-(2,2,2-trifluoroethyl)pyrazolo[4,3-c]pyridin-6-yl]-(1,4-oxazepan-4-yl)methanone] |
| < 0.1 µM | < 1 µM | O=C(c1cc2c(cn1)c(Nc1ccncn1)nn2CC(F)(F)F)N1CCCOCC1 [Compound 73, [1,4]Oxazepan-4-yl-[3-(pyrimidin-4-ylamino)-1-(2,2,2-trifluoro-ethyl)-1H-pyrazolo[4,3-c]pyridin-6-yl]-methanone] |
| < 0.1 µM | < 0.1 µM | O=C(c1cc2c(cn1)c(Nc1cnccn1)nn2CC(F)(F)F)N1CCC(O)CC1 [Compound 74, (4-Hydroxy-piperidin-1-yl)-[3-(pyrazin-2-ylamino)-1-(2,2,2-trifluoro-ethyl)-1H-pyrazolo[4,3-c]pyridin-6-yl]-methanone] |
| < 0.1 µM | < 0.1 µM | O=C(c1cc2c(cn1)c(Nc1cnc(Cl)cn1)nn2CC(F)(F)F)N1CCC(O)CC1 [Compound 75, [3-(5-Chloro-pyrazin-2-ylamino)-1-(2,2,2-trifluoro-ethyl)-1H-pyrazolo[4,3-c]pyridin-6-yl]-(4-hydroxy-piperidin-1-yl)-methanone] |
| < 0.1 µM | < 1 µM | O=C(c1cc2c(cn1)c(Nc1ccncn1)nn2CC(F)(F)F)N1CCC(O)CC1 [Compound 76, (4-Hydroxy-piperidin-1-yl)-[3-(pyrimidin-4-ylamino)-1-(2,2,2-trifluoro-ethyl)-1H-pyrazolo[4,3-c]pyridin-6-yl]-methanone] |
| < 0.1 µM | < 0.1 µM | CS(=O)(=O)Cn1nc(Nc2ccc(F)cn2)c2cnc(C(=O)N3CCCOCC3)cc21 [Compound 77, [3-(5-Fluoro-pyridin-2-ylamino)-1-methanesulfonylmethyl-1H-pyrazolo[4,3-c]pyridin-6-yl]-[1,4]oxazepan-4-yl-methanone] |
| < 0.1 µM | < 0.1 µM | CS(=O)(=O)Cn1nc(Nc2ccc(Cl)cn2)c2cnc(C(=O)N3CCCOCC3)cc21 [Compound 78, [3-(5-Chloro-pyridin-2-ylamino)-1-methanesulfonylmethyl-1H-pyrazolo[4,3-c]pyridin-6-yl]-[1,4]oxazepan-4-yl-methanone] |
| < 0.1 µM | < 0.1 µM | CS(=O)(=O)Cn1nc(Nc2cc(Cl)ccn2)c2cnc(C(=O)N3CCCOCC3)cc21 [Compound 79, [3-(4-Chloro-pyridin-2-ylamino)-1-methanesulfonylmethyl-1H-pyrazolo[4,3-c]pyridin-6-yl]-[1,4]oxazepan-4-yl-methanone] |
| < 0.1 µM | < 0.1 µM | O=C(c1cc2c(cn1)c(Nc1ccc(F)c(F)n1)nn2CC(F)(F)F)N1CCCOCC1 [Compound 80, [3-[(5,6-difluoro-2-pyridyl)amino]-1-(2,2,2-trifluoroethyl)pyrazolo[4,3-c]pyridin-6-yl]-(1,4-oxazepan-4-yl)methanone] |
| < 0.1 µM | < 1 µM | COc1cc(Nc2nn(CC(F)(F)F)c3cc(C(=O)N4CCCOCC4)ncc23)ncc1F [Compound 81, [3-[(5-fluoro-4-methoxy-2-pyridyl)amino]-1-(2,2,2-trifluoroethyl)pyrazolo[4,3-c]pyridin-6-yl]-(1,4-oxazepan-4-yl)methanone] |
| < 0.1 µM | < 0.1 µM | COc1ccc(Nc2nn(CC(F)(F)F)c3cc(C(=O)N4CCCOCC4)ncc23)nc1 [Compound 83, [3-(5-Methoxy-pyridin-2-ylamino)-1-(2,2,2-trifluoro-ethyl)-1H-pyrazolo[4,3-c]pyridin-6-yl]-[1,4]oxazepan-4-yl-methanone] |
| < 0.1 µM | < 0.1 µM | O=C(c1cc2c(cn1)c(Nc1cncs1)nn2CC(F)(F)F)N1CCCOCC1 [Compound 84, [1,4]Oxazepan-4-yl-[3-(thiazol-5-ylamino)-1-(2,2,2-trifluoro-ethyl)-1H-pyrazolo[4,3-c]pyridin-6-yl]methanone] |
| < 0.1 µM | < 0.1 µM | O=C(c1cc2c(cn1)c(Nc1nccs1)nn2CC(F)(F)F)N1CCCOCC1 [Compound 85, [1,4]Oxazepan-4-yl-[3-(thiazol-2-ylamino)-1-(2,2,2-trifluoro-ethyl)-1H-pyrazolo[4,3-c]pyridin-6-yl]methanone] |
| < 0.1 µM | < 1 µM | O=C(c1cc2c(cn1)c(Nc1cccc(=O)[nH]1)nn2CC(F)(F)F)N1CCCOCC1 [Compound 86, 6-[6-([1,4]Oxazepane-4-carbonyl)-1-(2,2,2-trifluoro-ethyl)-1H-pyrazolo[4,3-c]pyridin-3-ylamino]-1H-pyridin-2-one] |
